According to the OligoGym collection:
After the bases stand the sugars from the 5' end (letter, count) and the backbone: PS all phosphorothioate, else s phosphorothioate and o phosphodiester by linkage. Methylation of C is not given here. e = 2'-O-(2-methoxyethyl) (MOE); k = constrained ethyl (cEt); d = 2'-deoxy (DNA); m = 2'-O-methyl

Biological target: HSD17B13
Conditions: ASO, HepaRG

Sequence	target mRNA inhibition (1 µM)	other results
ACCAAACTTCCAGCAG (sugars k3 d1 m1 d8 k3, PS)	54%	
ACCAAACTTGCCCATA (sugars k3 d10 k3, PS)	46%	
ACCAACTATGTAATAG (sugars k3 d10 k3, PS)	47%	
ACCAATATGGGATGAG (sugars k3 d10 k3, PS)	24%	
ACCAATGCAGTTTGTA (sugars k3 d10 k3, PS)	75%	target mRNA inhibition (0.02 µM): 6%; target mRNA inhibition (0.078 µM): 0%; target mRNA inhibition (0.313 µM): 32%; target mRNA inhibition (1.25 µM): 80%; target mRNA inhibition (5 µM): 90%
ACCACATACGCATGCG (sugars k3 d10 k3, PS)	45%	
ACCACGATTGTTACAT (sugars k3 d10 k3, PS)	34%	
ACCAGAATCCATTCTA (sugars k3 d10 k3, PS)	60%	
ACCATAGGACATGGAG (sugars k3 d10 k3, PS)	62%	
ACCCAGTATTCACAAA (sugars k3 d10 k3, PS)	10%	
ACCGTTTTGGGCTAAT (sugars k3 d10 k3, PS)	78%	target mRNA inhibition (0.02 µM): 0%; target mRNA inhibition (0.078 µM): 0%; target mRNA inhibition (0.313 µM): 45%; target mRNA inhibition (1.25 µM): 81%; target mRNA inhibition (5 µM): 95%
ACCTTACCTTGTGCTT (sugars k3 d10 k3, PS)	0%	
ACGATTGTTACATCAC (sugars k3 d10 k3, PS)	53%	
ACGCCTAGTTTTCGGC (sugars k3 d10 k3, PS)	7%	
ACGGTGATCAAATGTA (sugars k3 d10 k3, PS)	53%	
ACGGTGATCAAATGTA (sugars kkdddddddddkekek, PS)	33%	
ACTAATATTGAGGCAC (sugars k3 d1 m1 d8 k3, PS)	42%	
ACTAATTTAGTCAACT (sugars k3 d10 k3, PS)	18%	
ACTACAAGAGGTTATT (sugars k3 d10 k3, PS)	46%	
ACTACATGACCTGGGT (sugars k3 d10 k3, PS)	54%	
ACTACATTAACACCAA (sugars k3 d10 k3, PS)	46%	
ACTACTTCAGTTAGCA (sugars k3 d10 k3, PS)	79%	
ACTAGAACTCCCAACC (sugars k3 d10 k3, PS)	20%	
ACTCCGTTATAAGTTT (sugars k3 d10 k3, PS)	42%	

Sequence	target mRNA inhibition (1 µM)	other results
ACTCTAAATACCCTTG (sugars k3 d10 k3, PS)	16%	
ACTCTATTGATTGGCT (sugars k3 d10 k3, PS)	57%	
ACTGACAACCCTTAAC (sugars k3 d10 k3, PS)	10%	
ACTGCTGCTAGTGCCA (sugars k3 d9 k3 e1, PS)	57%	
ACTGTATTAAGACAGT (sugars k3 d10 k3, PS)	20%	
ACTTCAGAGTTATACA (sugars k3 d10 k3, PS)	35%	
ACTTCTTACGACTTCA (sugars k3 d10 k3, PS)	43%	
ACTTGATCTCTTAGCT (sugars k3 d9 k3 e1, PS)	59%	
ACTTTCATAGGGAGAC (sugars k3 d10 k3, PS)	80%	target mRNA inhibition (0.02 µM): 0%; target mRNA inhibition (0.078 µM): 8%; target mRNA inhibition (0.313 µM): 25%; target mRNA inhibition (1.25 µM): 69%; target mRNA inhibition (5 µM): 83%
ACTTTTAGGGAGGTAG (sugars k3 d10 k3, PS)	20%	
ACTTTTCCGTCTCACA (sugars k3 d10 k3, PS)	89%	target mRNA inhibition (0.02 µM): 0%; target mRNA inhibition (0.078 µM): 19%; target mRNA inhibition (0.313 µM): 61%; target mRNA inhibition (1.25 µM): 88%; target mRNA inhibition (5 µM): 84%
AGAAATCTAAGAACCC (sugars k3 d10 k3, PS)	25%	
AGAACCAATATGCTCT (sugars k3 d10 k3, PS)	38%	
AGAACCAGGACTCTCC (sugars k3 d10 k3, PS)	67%	
AGAAGTATGTGAACTC (sugars k3 d10 k3, PS)	41%	
AGAATAGAGTTGCACC (sugars k3 d9 k3 e1, PS)	58%	
AGAATAGAGTTGCACC (sugars k3 d10 k3, PS)	70%	
AGACAATTAACATTCG (sugars k3 d10 k3, PS)	62%	
AGACAGTTGAGTAGTG (sugars k3 d10 k3, PS)	63%	
AGACCAAAAAGATGGC (sugars k3 d10 k3, PS)	80%	target mRNA inhibition (0.02 µM): 4%; target mRNA inhibition (0.078 µM): 35%; target mRNA inhibition (0.313 µM): 69%; target mRNA inhibition (1.25 µM): 82%; target mRNA inhibition (5 µM): 72%
AGACCTCTGTGAAAGC (sugars k3 d10 k3, PS)	50%	
AGACTAAGGGACCAGG (sugars k3 d10 k3, PS)	80%	target mRNA inhibition (0.02 µM): 22%; target mRNA inhibition (0.078 µM): 24%; target mRNA inhibition (0.313 µM): 56%; target mRNA inhibition (1.25 µM): 90%; target mRNA inhibition (5 µM): 94%
AGAGAGCGATAGATCT (sugars k3 d10 k3, PS)	15%	
AGAGAGTAATCAGTTT (sugars kkdddddddddkekek, PS)	52%	

Sequence	target mRNA inhibition (1 µM)	other results
AGAGCCAAACTGCTAC (sugars k3 d10 k3, PS)	55%	
AGAGGATAGTCCATGC (sugars k3 d10 k3, PS)	74%	target mRNA inhibition (0.02 µM): 12%; target mRNA inhibition (0.078 µM): 19%; target mRNA inhibition (0.313 µM): 51%; target mRNA inhibition (1.25 µM): 73%; target mRNA inhibition (5 µM): 97%
AGAGGATAGTCCATGC (sugars kkdddddddddkekek, PS)	70%	
AGAGGCAAGGATACCT (sugars k3 d10 k3, PS)	78%	target mRNA inhibition (0.02 µM): 5%; target mRNA inhibition (0.078 µM): 7%; target mRNA inhibition (0.313 µM): 39%; target mRNA inhibition (1.25 µM): 68%; target mRNA inhibition (5 µM): 40%
AGAGGCTAGGGAAATC (sugars kkdddddddddkekek, PS)	59%	
AGAGTCGGTCACCTTT (sugars k3 d10 k3, PS)	71%	
AGAGTTATCTGGTTTG (sugars k3 d10 k3, PS)	56%	
AGAGUTGCACCGTTTT (sugars k3 d1 m1 d8 k3, PS)	68%	
AGATGGGCAAGGCCAC (sugars k3 d10 k3, PS)	59%	
AGATGGTAAGGAGTAG (sugars k3 d10 k3, PS)	26%	
AGATTAGTCTTGATGT (sugars k3 d10 k3, PS)	63%	
AGATTGGAATGCTACT (sugars k3 d10 k3, PS)	63%	
AGATTTACTTCCTTGT (sugars k3 d10 k3, PS)	41%	
AGCGAATGTTAAAACT (sugars k3 d10 k3, PS)	16%	
AGCTAAGAGACACTTC (sugars k3 d10 k3, PS)	41%	
AGCTAAGTATACTTTC (sugars k3 d10 k3, PS)	18%	
AGCTACCTCCAAATTC (sugars k3 d10 k3, PS)	0%	
AGCTATAGGTAGCTAA (sugars k3 d10 k3, PS)	0%	
AGCTGAGTGGATTACA (sugars k3 d10 k3, PS)	29%	
AGCTTAAACTCCAATG (sugars k3 d10 k3, PS)	40%	
AGCTTGGAAGGAGACT (sugars k3 d10 k3, PS)	69%	
AGCTTTTGTCCACCTT (sugars k3 d9 k3 e1, PS)	69%	
AGCTTTTGTCCACCTT (sugars k3 d10 k3, PS)	57%	
AGGCACTAAAGGTTTC (sugars k3 d10 k3, PS)	61%	

Sequence	target mRNA inhibition (1 µM)	other results
AGGCTGTAAGAGTCAG (sugars k3 d10 k3, PS)	74%	
AGGGAATTTATCAAAC (sugars k3 d10 k3, PS)	47%	
AGGGAGGTAGCTTTTG (sugars k3 d10 k3, PS)	46%	
AGGTAGCTAATGTATG (sugars k3 d10 k3, PS)	53%	
AGGTAGCTTTTGTCCA (sugars k3 d1 m1 d8 k3, PS)	59%	
AGGTTTAGCAATTTAG (sugars k3 d10 k3, PS)	54%	
AGGTTTTGATACCAGT (sugars k3 d10 k3, PS)	60%	
AGTAACTTTATTAACG (sugars k3 d10 k3, PS)	12%	
AGTAAGGTAAAGTCTA (sugars k3 d10 k3, PS)	55%	
AGTAATAAAGTCCAGA (sugars k3 d10 k3, PS)	43%	
AGTAATCAGTTTTCCT (sugars k3 d10 k3, PS)	65%	
AGTAATTGCTATAGTA (sugars k3 d10 k3, PS)	48%	
AGTACAGTTCCTTTTC (sugars kkdddddddddkekek, PS)	40%	
AGTAGTGGAGCCAGAC (sugars k3 d10 k3, PS)	39%	
AGTAGTGTAAGCTGAG (sugars k3 d10 k3, PS)	88%	target mRNA inhibition (0.02 µM): 0%; target mRNA inhibition (0.078 µM): 4%; target mRNA inhibition (0.313 µM): 50%; target mRNA inhibition (1.25 µM): 78%; target mRNA inhibition (5 µM): 92%
AGTATGACAACTGGAG (sugars k3 d10 k3, PS)	15%	
AGTATGTTTATGTAAG (sugars k3 d10 k3, PS)	48%	
AGTCATATTGAAAATC (sugars k3 d10 k3, PS)	39%	
AGTCCAGAATAGAGTT (sugars k3 d10 k3, PS)	58%	
AGTCGGATTATTTTTT (sugars k3 d10 k3, PS)	42%	
AGTCTTAAACCTTCCC (sugars k3 d9 k3 e1, PS)	61%	
